According to patent US5250683A, “Certain substituted taxanes and pharmaceutical compositions containing them” (Florida State University, priority 1992, dated 1993):

These compounds were tested on tubulin (assay: Tubulin binding assay (Tubulin Assay), method of Parness et al.). Details: compared to taxol and taxotere.
With `CC(=O)O[C@H]1C(=O)[C@@]2(C)[C@H]([C@H](OC(=O)c3ccccc3)[C@]3(O)C[C@H](OC(=O)[C@H](O)[C@@H](NC(=O)c4ccc(Br)cc4)c4ccc(Cl)cc4)C(C)=C1C3(C)C)[C@]1(OC(C)=O)CO[C@@H]1C[C@@H]2O` [Example 25, N-debenzoyl-N-(4-bromobenzoyl)-3'-desphenyl-3'-(4-chlorophenyl) taxol] the “Tubulin Assay Init. Peak” value was 60 and the “Tubulin Assay Rel. Rate” value was 83. For `CC(=O)O[C@H]1C(=O)[C@@]2(C)[C@H]([C@H](OC(=O)c3ccccc3)[C@]3(O)C[C@H](OC(=O)[C@H](O)[C@@H](NC(=O)c4ccc(C(C)(C)C)cc4)c4ccc(Cl)cc4)C(C)=C1C3(C)C)[C@]1(OC(C)=O)CO[C@@H]1C[C@@H]2O` [Example 26, N-debenzoyl-N-(4-t-butylbenzoyl)-3'-desphenyl-3'-(4-chlorophenyl) taxol], the “Tubulin Assay Init. Peak” value was 13 and the “Tubulin Assay Rel. Rate” value was 23. `CC(=O)O[C@H]1C(=O)[C@@]2(C)[C@H]([C@H](OC(=O)c3ccccc3)[C@]3(O)C[C@H](OC(=O)[C@H](O)[C@@H](NC(=O)c4ccc(C(C)(C)C)cc4)c4ccc(F)cc4)C(C)=C1C3(C)C)[C@]1(OC(C)=O)CO[C@@H]1C[C@@H]2O` [Example 27, N-debenzoyl-N-(4-t-butylbenzoyl)-3'-desphenyl-3'-(4-fluorophenyl) taxol] was tested, and the “Tubulin Assay Init. Peak” value was 55 and the “Tubulin Assay Rel. Rate” value was 82. For `COc1ccc(C(=O)N[C@@H](c2ccc(F)cc2)[C@@H](O)C(=O)O[C@H]2C[C@@]3(O)[C@@H](OC(=O)c4ccccc4)[C@@H]4[C@]5(OC(C)=O)CO[C@@H]5C[C@H](O)[C@@]4(C)C(=O)[C@H](OC(C)=O)C(=C2C)C3(C)C)cc1` [Example 28, N-debenzoyl-N-(4-methoxybenzoyl)-3'-desphenyl-3'-(4-fluorophenyl) taxol], the “Tubulin Assay Init. Peak” value was 106 and the “Tubulin Assay Rel. Rate” value was 97. With `COc1ccc([C@H](NC(=O)c2ccc(Cl)cc2)[C@@H](O)C(=O)O[C@H]2C[C@@]3(O)[C@@H](OC(=O)c4ccccc4)[C@@H]4[C@]5(OC(C)=O)CO[C@@H]5C[C@H](O)[C@@]4(C)C(=O)[C@H](OC(C)=O)C(=C2C)C3(C)C)cc1` [Example 29, N-debenzoyl-N-(4-chlorobenzoyl)-3'-desphenyl-3'-(4-methoxyphenyl) taxol] the “Tubulin Assay Init. Peak” value was 42 and the “Tubulin Assay Rel. Rate” value was 72. For `COc1ccc([C@H](NC(=O)c2ccc(Br)cc2)[C@@H](O)C(=O)O[C@H]2C[C@@]3(O)[C@@H](OC(=O)c4ccccc4)[C@@H]4[C@]5(OC(C)=O)CO[C@@H]5C[C@H](O)[C@@]4(C)C(=O)[C@H](OC(C)=O)C(=C2C)C3(C)C)cc1` [Example 30, N-debenzoyl-N-(4-bromobenzoyl)-3'-desphenyl-3'-(4-methoxyphenyl) taxol], the “Tubulin Assay Init. Peak” value was 44 and the “Tubulin Assay Rel. Rate” value was 70. With `COc1ccc([C@H](NC(=O)c2ccc(C(C)(C)C)cc2)[C@@H](O)C(=O)O[C@H]2C[C@@]3(O)[C@@H](OC(=O)c4ccccc4)[C@@H]4[C@]5(OC(C)=O)CO[C@@H]5C[C@H](O)[C@@]4(C)C(=O)[C@H](OC(C)=O)C(=C2C)C3(C)C)cc1` [Example 31, N-debenzoyl-N-(4-t-butylbenzoyl)-3'-desphenyl-3'-(4-methoxyphenyl) taxol] the “Tubulin Assay Init. Peak” value was 24 and the “Tubulin Assay Rel. Rate” value was 44. For `COc1ccc(C(=O)N[C@@H](c2ccc(OC)cc2)[C@@H](O)C(=O)O[C@H]2C[C@@]3(O)[C@@H](OC(=O)c4ccccc4)[C@@H]4[C@]5(OC(C)=O)CO[C@@H]5C[C@H](O)[C@@]4(C)C(=O)[C@H](OC(C)=O)C(=C2C)C3(C)C)cc1` [Example 32, N-debenzoyl-N-(4-methoxybenzoyl)-3'-desphenyl-3'-(4-methoxyphenyl) taxol], the “Tubulin Assay Init. Peak” value was 51 and the “Tubulin Assay Rel. Rate” value was 81. For `CC(=O)O[C@H]1C(=O)[C@@]2(C)[C@H]([C@H](OC(=O)c3ccccc3)[C@]3(O)C[C@H](OC(=O)[C@H](O)[C@@H](NC(=O)c4ccccc4)c4ccccc4)C(C)=C1C3(C)C)[C@]1(OC(C)=O)CO[C@@H]1C[C@@H]2O` [Taxol, taxol, reference compound], the “Tubulin Assay Init. Peak” value was 100 and the “Tubulin Assay Rel. Rate” value was 98. `CC(=O)O[C@@]12CO[C@@H]1C[C@H](O)[C@@]1(C)C(=O)[C@H](O)C3=C(C)[C@@H](OC(=O)[C@H](O)[C@@H](NC(=O)OC(C)(C)C)c4ccccc4)C[C@@](O)([C@@H](OC(=O)c4ccccc4)[C@H]21)C3(C)C` [Taxotere, taxotere, reference compound] was tested, and the “Tubulin Assay Init. Peak” value was 100.
